Measured values from patent US5183828A, “Polyhydroxybenzoic acid derivatives” (priority 1990, dated 1993).
Several values for one entry are separate records, joined by “and”; a condition that tells them apart may be missing. Identical values can stand only once. Counter-ions that a name gives are not always drawn.

Experiments:
L1210 leukemia = assay: antitumor activity in L1210 leukemia (percent increase in survival time), Table 2; assay type: in vivo, mice; conditions: Mus musculus, L1210, 192 h, 8 days; for ILS at 300 mg/kg: 300 mg/kg ip daily
Method: Testing of the compounds of this invention against L-1210 lymphoid leukemia were carried out as follows: L-1210 leukemia was maintained by weekly passage of 10^5 L-1210 cells intraperitoneally into DBA/2 mice. Diluted ascitic fluid, 0.1 ml. (10^5 cells), was administered ip to female B6D2 F1 mice weighing about 20 g. Drugs were administered ip 24 hours after tumor transplantation and injections were continued daily for a total of eight days. A group of control mice receiving only the injection medium were maintained. Table 2 which follows gives the antitumor activity against L-1210 leukemia for certain compounds of this invention. In the table, column 1 gives the name of the compound, column 2 the dose in mg./kg., and column 3 the percent increase in survival time over controls at each dose level.

B16 Melanoma = assay: activity vs B16 melanoma (T/C % survival), Table 4; assay type: in vivo, mice; conditions: nine days, >120 significant
Method: The drugs were also used to treat melanotic melanoma B16. The protocol for testing against this tumor is as follows:
0.5 ml. of a tumor homogenate prepared by homogenizing 1 g. of tumor with 10 ml. of cold balanced solution is implanted ip in groups of 10 B6 C3 F1 mice. The drug is administered daily for a total of nine days starting one day after tumor inoculation. The results are expressed as mean survival time of treated group versus control group (T/C) as a percent.

[1] = free radical scavenging ability (destruction of diphenylpicrylhydrazyl), Table 7; conditions: 100 μM diphenylpicrylhydrazyl in acetone; test compound 25 μM, 2.5 μM (footnote)
Text: It is believed that the antineoplastic activity of the compounds of this invention is due in parts to their ability to scavenge free-radicals. Additionally, the compounds of this invention are cancer protective agents and this utility also may be a manifestation of their free-radical scavenging capability. Free-radical scavenging agents may also be useful in detoxifying mammals in whom an excess of free radicals is a cause and/or result of the toxicity. Other possible uses of free radical scavengers are to inhibit protaglandin transformation, leucotriene interconversion and lipogenesis, to act as inflammatory modulators and as food additive or preservatives to prevent lipid oxidation. The free radical scavenging ability of the compounds of the invention was determined by measuring the destruction of the stable free radical, diphenylpicrylhydrazyl, in the presence of the test compound in a manner similar to that reported by […] and Herzmann, Naturwiss, 47, 133-134 (1960). […] The test compound was added at a final concentration of 25 μM and the rate of reduction of absorpotion at […] was observed. Table 7 below gives the free radical scavenging abilities of the compounds of this invention expresses as the initial rate of decrease in optical density units/min.

Δ^5-lipoxygenase = biological target: T1, Δ^5-lipoxygenase (Rattus norvegicus, UniProt P12527); assay: ability to inhibit Δ^5-lipoxygenase; assay type: biochemical; conditions: RBL-1 cell supernatant
T1 construct: supernatant fraction of lysed rat basophilic leukemia (RBL-1) cells; endogenous in cells; host or cells: RBL-1 cells, 49,000 g supernatant of homogenate
T1 sequence (P12527 1-673): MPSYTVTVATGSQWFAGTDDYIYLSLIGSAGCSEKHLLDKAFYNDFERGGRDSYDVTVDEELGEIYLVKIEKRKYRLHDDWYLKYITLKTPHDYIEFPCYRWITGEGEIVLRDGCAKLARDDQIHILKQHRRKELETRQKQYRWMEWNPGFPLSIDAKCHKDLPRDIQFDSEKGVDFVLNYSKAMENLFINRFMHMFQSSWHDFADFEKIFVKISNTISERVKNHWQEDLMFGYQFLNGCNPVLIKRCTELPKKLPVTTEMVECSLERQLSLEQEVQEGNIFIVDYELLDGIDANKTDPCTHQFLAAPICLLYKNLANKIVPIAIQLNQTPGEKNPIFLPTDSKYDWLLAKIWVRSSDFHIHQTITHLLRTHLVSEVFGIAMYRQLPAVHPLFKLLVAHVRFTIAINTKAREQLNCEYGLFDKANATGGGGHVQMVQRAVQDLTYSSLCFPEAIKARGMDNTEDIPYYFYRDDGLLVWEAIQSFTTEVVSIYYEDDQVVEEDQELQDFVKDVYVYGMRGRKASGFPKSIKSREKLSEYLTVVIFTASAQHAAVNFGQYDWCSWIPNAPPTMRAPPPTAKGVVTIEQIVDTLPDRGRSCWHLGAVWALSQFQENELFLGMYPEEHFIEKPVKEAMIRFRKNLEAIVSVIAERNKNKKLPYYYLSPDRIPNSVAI
Method: This enzyme is believed to initiate the synthesis of slow reacting substance of […]), an important mediator in the pathogenesis of asthma. Thus, a drug capable of inhibiting this enzyme would also help to prevent asthmatic attacks. In this determination, Δ^5 -lipoxygenase was derived from the supernatant fraction of lysed rat basophilic leukemia (RBL-1) cells. […] The Δ^5 -lipoxygenase was derived from RBL-1 cells which were lysed by homogenization in ice-cold buffer (50 mM Tris-HCl buffer, pH 7.2, containing 1 mM EDTA and 14 uM indomethacin). The homogenate was centrifuged at 4 ° C. at 49,000 g for 20 min and the resulting supernatant fraction was used as the source of Δ^5 -lipoxygenase. The enzyme was assayed at 37° using 6.7 uM (0.39 uCi/ml) [1-14C]arachidonic acid as the substrate in 50 mM Tris-HCl buffer, pH 7.2, containing 1 mM gluthatione, 3 mM CaCl2, 14 uM indomethacin, and 0.25 to 0.50 mM EDTA. […] The effect of compounds on Δ^5 -lipoxygenase activity was determined by preincubating the enzyme for 10 min at 30° in the presence or absence of various concentrations of the drug prior to addition of substrate.

SMILES: CCOC(=N)c1cc(O)c(O)c(O)c1 [ethyl 3,4,5-trihydroxybenzamidate-HCl, Ethyl 3,4,5-trihydroxybenzamidate hydrochloride]
- ILS at 300 mg/kg (L1210 leukemia): 42.3%
- ILS at 450 mg/kg (L1210 leukemia; 450 mg/kg ip daily): 58.4%
- T/C % (mean survival time) (B16 Melanoma; 25 mg/kg daily): 105%
- T/C % (mean survival time) (B16 Melanoma; 50 mg/kg daily, listed as ethyl gallamidate.HCl, hydrochloride): 109% and 104%
- T/C % (mean survival time) (B16 Melanoma; 100 mg/kg daily, listed as ethyl gallamidate.HCl, hydrochloride): 121% and 109% and 107%
- T/C % (mean survival time) (B16 Melanoma; 200 mg/kg daily, listed as ethyl gallamidate.HCl, hydrochloride): 121% and 125% and 122%
- T/C % (mean survival time) (B16 Melanoma; 400 mg/kg daily, listed as ethyl gallamidate.HCl, hydrochloride): 124% and 156% and 137%
- initial rate of decrease in optical density (518 nm) [1]: 3.730 units/min.
- inhibition at 10 µM (Δ^5-lipoxygenase): 86%

SMILES: NC(=NO)c1ccc(O)c(O)c1 [3,4-dihydroxybenzamidoxime.HCl, 3,4-dihydroxybenzamidoximehydrochloride]
- ILS at 157 mg/kg (L1210 leukemia; 157 mg/kg ip daily): 132%
- ILS at 200 mg/kg (L1210 leukemia; 200 mg/kg ip daily): 43.5%
- ILS at 238 mg/kg (L1210 leukemia; 238 mg/kg ip daily): 46.9%
- ILS at 300 mg/kg (L1210 leukemia): 73.9%
- T/C % (mean survival time) (B16 Melanoma; 25 mg/kg daily): 119%
- T/C % (mean survival time) (B16 Melanoma; 50 mg/kg daily): 127%
- T/C % (mean survival time) (B16 Melanoma; 100 mg/kg daily): 129%
- T/C % (mean survival time) (B16 Melanoma; 200 mg/kg daily): 134%
- T/C % (mean survival time) (B16 Melanoma; 400 mg/kg daily): 117%
- T/C % (mean survival time) (B16 Melanoma; 800 mg/kg daily): toxic
- initial rate of decrease in optical density (518 nm) [1]: 0.718 units/min.
- inhibition at 1 µM (Δ^5-lipoxygenase; 1 uM): 25%
- inhibition at 10 µM (Δ^5-lipoxygenase): 94%
